The subject of experiment [1] is primary mouse hepatocytes. The experiment can be described thus: Lipogenesis ([1-14C]-acetate incorporation into fatty acids) in primary hepatocytes. The experiment is classed as cell-based. The note with it: varying concentrations, 1 h at 37 C. The protocol: Hepatocyte isolation: The liver was first perfused with 50 ml perfusion buffer (Krebs-Hepes buffer with […] EDTA), followed with 50 ml collagenase A buffer (Krebs-Hepes buffer with 5 mM CaCl2) and 0.5 mg/ml collagenase). After passage through a 100 μm mesh, the cell solution was washed several times with cold media and finally the cell culture pellet was resuspended in culture medium (medium 199 (M199)+GlutaMAX, 100 U/ml penicillin G, and 100 μg/ml streptomycin, 0.1% (wt/vol) BSA, 10% FCS, 10 nM insulin, 200 nM triiodothyronine and 500 nM dexamethasone). Hepatocytes were left to attach (3-4 h) and cultured overnight in M199 supplemented with antibiotics and 100 nM dexamethasone. Cells were used for experiments the following morning.
For lipogenesis measurements in primary hepatocytes, cells were seeded at 600 K cells per well in a 6-well plate overnight. Media was replaced with fresh M199 media alone for 2 hours prior to incubation with varying concentrations of compound 1 for 1 h at 37 C, in the presence of [1-14C]-acetate. The incorporation of [14C] into fatty acids was determined in the lower organic layer after separation from the aqueous phase.

For experiment [2], the system named is β2-containing AMPK complexes. Description: pACC HTRF assay in AMPKβ1/β2 double knockout U-2 OS cells stably expressing β2 WT. The experiment is classed as cell-based, human. The note with it: AMPKβ1β2 double knockout cells stably expressing β2 WT, varying concentrations, 30 mins at 37 C. As for the experimental part: We took AMPKβ1/β2 double knockout cells, and re-introduced the expression of human […] or β2 WT isoforms. […] Cells stably expressing β1 WT or β2 were treated with varying concentrations of compound 1 and subjected to the pACC HTRF (Cisbio) assay to determine the level of phosphorylation of the AMPK substrate, ACC, in cell lysates, as in example 1. […] This activation profile is characteristic of activators that bind to the ADaM site and consistent with previous studies showing that ADaM-site activators have poorer activation of β2-containing complexes in vitro and in cells.
On the technique in general: TR-FRET usually uses a lanthanide donor and a delayed reading to cut background.

Another experiment concerns AMPK. The experiment can be described thus: pACC HTRF assay (Cisbio) in U-2 OS Flp-In T-REx cells. To be noted: varying concentrations, 30 mins at 37 C. Format: cell-based. The protocol: U-2 OS Flp-In T-REx cells were seeded at 50 K in a 96-well plate and left overnight at 37 C in DMEM GlutaMAX (Thermo Fisher Scientific) supplemented with 10% (vol/vol) FBS and 100 U/ml penicillin G, and 100 μg/ml streptomycin. Cells were treated for 30 mins with varying concentrations of Compound 1 in media lacking FBS and then cells were lysed in 50 μl of Cisbio lysis buffer #1 supplemented with blocking solution as per the manufacturer's protocol (Cisbio). Compound 1 is 2,4-dihydroxy-3-[(1R,6R)-3-methyl-6-prop-1-en-2-ylcyclohex-2-en-1-yl]-6-pentylbenzoic acid, also known as Cannabidiolic acid, CAS number: 1244-58-2.
Cells were lysed for 30 mins at room temperature before 16 μl of lysate was incubated with 4 μl of the HTRF antibodies (1:40 dilution of the acceptor and donor (p)ACC antibodies, as per the manufacturers protocol). Lysates were incubated overnight with the antibodies before 665 nm/620 nm ratio was determined using a MolecularDevices i3 plate reader (with a HTRF cartridge add-on).

Experiment [3] deals with ADaM-binding site AMPK mutant (β1 S108A). The experiment can be described thus: pACC HTRF assay in AMPKβ1/β2 double knockout U-2 OS cells stably expressing β1 S108A mutant. The note with it: AMPKβ1β2 double knockout cells stably expressing β1 S108A mutant, varying concentrations, 30 mins at 37 C. The experiment is classed as cell-based, human. From the text: (§1) A MPKβ1/β2 double knockout U-2 OS Flp-In™ T-Rex™ cell lines were generated by Horizon Discovery (Cambridge, UK). Cells were genotyped and analysed by western blotting to confirm that there was a complete knockout of AMPKβ1/β2. We took these AMPKβ1/β2 double knockout cells, and re-introduced the expression of human β1 wild-type (WT) or a β1 Serine 108 to alanine mutation (S108A). This was achieved using the Flp-In™ system (Invitrogen) present in this cell line and stable cells expressing β1 WT or a β1 S108A mutant were generated according to the manufacturers' protocols. Re-expression of the β1 subunit was confirmed by western blot analysis.
(§2) Cells stably expressing β1 WT or a β1 S108A mutant were treated with varying concentrations of Compound 1 and subjected to the pACC HTRF (Cisbio) assay to determine the level of phosphorylation of the AMPK substrate, ACC, in cell lysates, as in example 1.

For another experiment, the system named is AMPK β1 WT. Description: pACC HTRF assay in AMPKβ1/β2 double knockout U-2 OS cells stably expressing β1 WT. Format: cell-based, human. The note with it: AMPKβ1β2 double knockout cells stably expressing β1 WT, varying concentrations, 30 mins at 37 C.
Text: as §1, §2
We took AMPKβ1/β2 double knockout cells, and re-introduced the expression of human […] or β2 WT isoforms. […] Cells stably expressing β1 WT or β2 were treated with varying concentrations of compound 1 and subjected to the pACC HTRF (Cisbio) assay to determine the level of phosphorylation of the AMPK substrate, ACC, in cell lysates, as in example 1. […]

SMILES strings stand for the structures. Entries after “also recorded” stand apart in the source; their conditions may differ.

Take `C=C(C)[C@@H]1CCC(C)=C[C@H]1c1c(O)cc(CCCCC)c(C(=O)O)c1O` [Compound 1, 2,4-dihydroxy-3-[(1R,6R)-3-methyl-6-prop-1-en-2-ylcyclohex-2-en-1-yl]-6-pentylbenzoic acid]: in experiment [1], the “Lipogenesis (percentage compared to the no treatment control)” value is “dose-dependent inhibition of lipogenesis; also recorded: able to inhibit lipogenesis in a dose-dependent manner”. In addition, the “Phosphorylation of ACC (fold increase in activation)” value in experiment [2] was “impaired activation of AMPK; also recorded: impaired ability of compound 1 to increase pACC”; in the experiment on AMPK, “increased the phosphorylation of the AMPK substrate, acetyl-CoA carboxylase (ACC); also recorded: increases the phosphorylation of the AMPK substrate, ACC, in a dose-dependent manner”; in experiment [3] it was “did not activate AMPK; also recorded: not able to increase pACC”; with AMPK β1 WT, “able to dose-dependently increase pACC”.

The values above are taken from patent US20230414638A1, “S[…] COMPOUNDS AS AMPK ACTIVATOR AND USES THEREOF” (SOCIETE DES PRODUITS NESTLE S.A., priority 2020, published 2023).
